Experimental data from patent publication US12419307B2, “Mixtures comprising indazole pesticides” (FMC Corporation, priority 2019, dated 2025).
Like-named read-outs stand apart in the source and are kept apart here.

Columns and labels:
Assay type in all cases: in vivo
[1] = system: cotton melon aphid (Aphis gossypii Glover); test: Test D: cotton melon aphid control on okra plants, insect mortality after 6 days; settings: Aphis gossypii, read-out: % Mortality (obs)
Method: The analysis of enhanced activity between the mixtures or compositions was determined using Colby's equation. The average % mortality data for the test compounds alone were inserted into the Colby's equation. If the observed (obs) average % mortality was higher than “p”, the expected (exp) % mortality, the mixture or composition had enhanced effects. If the observed average % mortality was equal to or lower than the expected mortality, the mixture or composition either had no enhanced effect. For bioassays where insect feeding damage was evaluated, enhanced activity is identified when the observed plant damage is less than the expected plant damage rating; ratings ranged between 0 (no damage) and 10 (dead plant) and each value was converted to a % plant protection. 100−(Obs Plant Damage*10)
For evaluating control of cotton melon aphid (Aphis gossypii Glover) through contact and/or systemic means, each test unit consisted of a small open container with a 6- to 7-day-old okra plant inside. This was pre-infested by placing on a leaf of the test plant 30 to 40 aphids on a piece of leaf excised from a culture plant (cut-leaf method). The […] moved onto the test plant as the leaf piece desiccated. After pre-infestation, the soil of the test unit was covered with a layer of sand.
Test compounds were formulated and sprayed as described for Test A. The applications were replicated three times. After spraying of the formulated test compounds, each test unit was allowed to dry for 1 hour and then a black, screened cap was placed on top. […]

[2] = system: diamondback moth (Plutella xylostella L.); test: Test E: diamondback moth control on mustard plants, contact and/or systemic, plant damage rating after 6 days
Method: (§1) The pest control protection afforded by the mixtures or compositions is not limited, however, to these species. The analysis of enhanced activity between the mixtures or compositions was determined using Colby's equation. The average % mortality data for the test compounds alone were inserted into the Colby's equation. If the observed (obs) average % mortality was higher than “p”, the expected (exp) % mortality, the mixture or composition had enhanced effects. If the observed average % mortality was equal to or lower than the expected mortality, the mixture or composition either had no enhanced effect. For bioassays where insect feeding damage was evaluated, enhanced activity is identified when the observed plant damage is less than the expected plant damage rating; ratings ranged between 0 (no damage) and 10 (dead plant) and each value was converted to a % plant protection. 100−(Obs Plant Damage*10)
For evaluating control of diamondback moth (Plutella xylostella L.) through contact and/or systemic means, each test unit consisted of a small open container with a 10- to 12-day-old mustard plant inside. Test compounds were formulated and sprayed with 3 replications as described for Test A. After spraying, the test units were allowed to dry for 1 hour before they were infested with 30-50 neonate larvae. A black, screened cap was placed on the top of each container. The test units were held for 6 days in a growth chamber at 24-25° C. and 70% relative humidity. Each test unit was then visually assessed for plant damage and rated 0-10, where 0=undamaged and 10=plant is dead; the results are listed in Tables 6a-b.

[3] = system: diamondback moth (Plutella xylostella L.); test: Test E: diamondback moth control through ingestion only, sprayed cabbage leaf tissue (Dipel), mortality after 4 days; settings: Table 6c, read-out: % Mortality (obs)
Method: as §1
For evaluating control of diamondback moth (Plutella xylostella L.) through ingestion only, the test substance Dipel® (active ingredient Bacillus thuringiensis kurstaki) was formulated by diluting in water and then adding an MSO based adjuvant at 0.1% v/v. Cabbage plants were sprayed with Dipel® to runoff and allowed to dry for three hours. Once dry, plants leaf tissue was excised and one piece was placed into one well in an eight well tray. Test units were maintained in a growth chamber at 24-25° C. and 70% relative humidity.

CSCC(C)(C)NC(=O)c1ccc(F)c2nn(-c3cccnc3)cc12 [Cpd 1, N-[1,1-dimethyl-2-(methylthio)ethyl]-7-fluoro-2-(3-pyridinyl)-2H-indazole-4-carboxamide]
mortality at 0.08 ppm ([1]; 5 h, Table 5h): 37.3%
mortality at 0.12 ppm ([1]; 5 h, Table 5h): 50.5%
mortality at 0.08 ppm ([1]; 120 h, Table 5d): 23.8%
mortality at 0.12 ppm ([1]; 120 h, Table 5d): 49.8%
mortality at 0.08 ppm ([1]; Table 5a): 23.8%
mortality at 0.12 ppm ([1]; Table 5a): 49.8%
mortality at 0.08 ppm ([1]; Table 5b): 23.8%
mortality at 0.12 ppm ([1]; Table 5b): 49.8%
mortality at 0.08 ppm ([1]; Table 5c): 100%
mortality at 0.12 ppm ([1]; Table 5c): 26.7%
mortality at 0.08 ppm ([1]; Table 5e): 21.3%
mortality at 0.12 ppm ([1]; Table 5e): 35.3%
mortality at 0.08 ppm ([1]; Table 5f): 20.8%
mortality at 0.12 ppm ([1]; Table 5f): 39.4%
mortality at 0.08 ppm ([1]; Table 5g): 29.1%
mortality at 0.12 ppm ([1]; Table 5g): 35.9%
Plant Protection (obs) ([2]; Table 6a, 50 ppm): 0.0
Plant Protection (obs) ([2]; Table 6a, 250 ppm): 0.0
Plant Protection (obs) ([2]; Table 6b, 50 ppm): 0.0
Plant Protection (obs) ([2]; Table 6b, 250 ppm): 0.0

C[S+]([O-])CC(C)(C)NC(=O)c1ccc(F)c2nn(-c3cccnc3)cc12 (stereo not shown) [Cpd 2, N-[1,1-dimethyl-2-(methylsulfinyl)ethyl]-7-fluoro-2-(3-pyridinyl)-2H-indazole-4-carboxamide]
mortality at 0.05 ppm ([1]; 5 h, Table 5h): 43.9%
mortality at 0.18 ppm ([1]; 5 h, Table 5h): 57.5%
mortality at 0.05 ppm ([1]; 120 h, Table 5d): 40.1%
mortality at 0.18 ppm ([1]; 120 h, Table 5d): 31.4%
mortality at 0.05 ppm ([1]; Table 5a): 40.1%
mortality at 0.18 ppm ([1]; Table 5a): 31.4%
mortality at 0.05 ppm ([1]; Table 5b): 40.1%
mortality at 0.18 ppm ([1]; Table 5b): 31.4%
mortality at 0.05 ppm ([1]; Table 5c): 0%
mortality at 0.18 ppm ([1]; Table 5c): 80%
mortality at 0.05 ppm ([1]; Table 5e): 16.3%
mortality at 0.18 ppm ([1]; Table 5e): 37%
mortality at 0.05 ppm ([1]; Table 5f): 17.1%
mortality at 0.18 ppm ([1]; Table 5f): 37.2%
mortality at 0.05 ppm ([1]; Table 5g): 23.4%
mortality at 0.18 ppm ([1]; Table 5g): 38.3%
Plant Protection (obs) ([2]; Table 6a, 50 ppm): 0.0
Plant Protection (obs) ([2]; Table 6a, 250 ppm): 0.0
Plant Protection (obs) ([2]; Table 6b, 50 ppm): 0.0
Plant Protection (obs) ([2]; Table 6b, 250 ppm): 0.0

CC(C)(CS(C)(=O)=O)NC(=O)c1ccc(F)c2nn(-c3cccnc3)cc12 [Cpd 3, N-[1,1-dimethyl-2-(methylsulfonyl)ethyl]-7-fluoro-2-(3-pyridinyl)-2H-indazole-4-carboxamide]
mortality at 0.02 ppm ([1]; 5 h, Table 5h): 37.4%
mortality at 0.08 ppm ([1]; 5 h, Table 5h): 43.5%
mortality at 0.02 ppm ([1]; 120 h, Table 5d): 20%
mortality at 0.08 ppm ([1]; 120 h, Table 5d): 43.2%
mortality at 0.02 ppm ([1]; Table 5a): 20%
mortality at 0.08 ppm ([1]; Table 5a): 43.2%
mortality at 0.02 ppm ([1]; Table 5b): 20%
mortality at 0.08 ppm ([1]; Table 5b): 43.2%
mortality at 0.02 ppm ([1]; Table 5c): 0%
mortality at 0.08 ppm ([1]; Table 5c): 20%
mortality at 0.02 ppm ([1]; Table 5e): 19.9%
mortality at 0.08 ppm ([1]; Table 5e): 31.1%
mortality at 0.02 ppm ([1]; Table 5f): 17.6%
mortality at 0.08 ppm ([1]; Table 5f): 39%
mortality at 0.02 ppm ([1]; Table 5g): 15.8%
mortality at 0.08 ppm ([1]; Table 5g): 30.6%
Plant Protection (obs) ([2]; Table 6a, 50 ppm): 0.0
Plant Protection (obs) ([2]; Table 6a, 250 ppm): 0.0
Plant Protection (obs) ([2]; Table 6b, 50 ppm): 0.0
Plant Protection (obs) ([2]; Table 6b, 250 ppm): 0.0

CC1(NC(=O)c2cccc3nn(-c4cccnc4)cc23)CC1 [Cpd 4, N-(1-methylcyclopropyl)-2-(3-pyridinyl)-2H-indazole-4-carboxamide]
mortality at 0.2 ppm ([1]; 5 h, Table 5h): 44.6%
mortality at 0.5 ppm ([1]; 5 h, Table 5h): 68.7%
mortality at 0.2 ppm ([1]; 120 h, Table 5d): 48.3%
mortality at 0.5 ppm ([1]; 120 h, Table 5d): 58.9%
mortality at 0.2 ppm ([1]; Table 5a): 48.3%
mortality at 0.5 ppm ([1]; Table 5a): 58.9%
mortality at 0.2 ppm ([1]; Table 5b): 48.3%
mortality at 0.5 ppm ([1]; Table 5b): 58.9%
mortality at 0.2 ppm ([1]; Table 5c): 6.7%
mortality at 0.5 ppm ([1]; Table 5c): 6.7%
mortality at 0.2 ppm ([1]; Table 5e): 30.8%
mortality at 0.5 ppm ([1]; Table 5e): 69.7%
mortality at 0.2 ppm ([1]; Table 5f): 40.7%
mortality at 0.5 ppm ([1]; Table 5f): 73.4%
mortality at 0.2 ppm ([1]; Table 5g): 21%
mortality at 0.5 ppm ([1]; Table 5g): 45.1%
mortality at 0.2 ppm ([1]; Table 5i): 33.5%
mortality at 0.5 ppm ([1]; Table 5i): 80.3%
mortality at 0.2 ppm ([1]; Table 5j): 33.5%
mortality at 0.5 ppm ([1]; Table 5j): 80.3%
mortality at 0.2 ppm ([1]; Table 5k): 40.2%
mortality at 0.5 ppm ([1]; Table 5k): 69.3%
mortality at 0.2 ppm ([1]; Table 5l): 40.2%
mortality at 0.5 ppm ([1]; Table 5l): 69.3%
mortality at 0.2 ppm ([1]; Table 5m): 42.5%
mortality at 0.5 ppm ([1]; Table 5m): 65%
mortality at 0.2 ppm ([1]; Table 5n): 57.1%
mortality at 0.5 ppm ([1]; Table 5n): 73.9%
Plant Protection (obs) ([2]; Table 6a, 50 ppm): 0.0
Plant Protection (obs) ([2]; Table 6a, 250 ppm): 0.0
Plant Protection (obs) ([2]; Table 6b, 50 ppm): 0.0
Plant Protection (obs) ([2]; Table 6b, 250 ppm): 0.0
mortality at 50 ppm ([3]; 50 ppm): 12.5%
mortality at 250 ppm ([3]; 250 ppm): 17%
